Test results published in ChEMBL document CHEMBL5390223, “Strategies for the Discovery of Oxazolidinone Antibacterial Agents: Development and Future Perspectives” (J Med Chem, 2023).
In brackets after ≈: the same amount, converted by molar mass.

Legend:
[1] = test system: Mycobacterium tuberculosis; test: Antimycobacterial activity against Mycobacterium tuberculosis H37Rv assessed as reduction in bacterial cell growth incubated for 6 days by Alamar blue staining based assay; assay type: functional; conditions: 144 h, time 6 day
[2] = test system: Staphylococcus aureus; test: Antibacterial activity against methicillin-resistant Staphylococcus aureus ATCC 33592 assessed as reduction in bacterial cell growth incubated for 18 hrs by microplate reader assay; assay type: functional
[3] = test system: Staphylococcus aureus; test: Antibacterial activity against methicillin-susceptible Staphylococcus aureus […] assessed as reduction in bacterial cell growth incubated for 18 hrs by microplate reader assay; assay type: functional
[4] = test system: Enterococcus faecium; test: Antimicrobial activity against Vancomycin-resistant Enterococcus faecium ATCC 700221 assessed as growth inhibition after 14 to 16 hrs by CLSI based broth dilution method; assay type: functional; conditions: time 14-16 hrs
[5] = test system: Staphylococcus aureus; test: Antimicrobial activity against methicillin-resistant Staphylococcus aureus assessed as microbial growth inhibition; assay type: functional
[6] = test system: Staphylococcus aureus; test: Antibacterial activity against methicillin-susceptible Staphylococcus aureus assessed as reduction in bacterial cell growth; assay type: functional
[7] = test system: Enterococcus faecium; test: Antimicrobial activity against Vancomycin-resistant Enterococcus faecium ATCC 51559 assessed as growth inhibition after 14 to 16 hrs by CLSI based broth dilution method; assay type: functional; conditions: time 14-16 hrs
[8] = test system: Enterococcus faecium; test: Antibacterial activity against vancomycin-resistant Enterococcus faecium infected in mouse assessed as reduction in bacterial growth by measuring effective dose administered orally; assay type: functional; conditions: route po
[9] = test system: Staphylococcus aureus; test: Antibacterial activity against methicillin-resistant Staphylococcus aureus infected in mouse assessed as reduction in bacterial growth by measuring effective dose administered orally; assay type: functional; conditions: route po
[10] = test system: Staphylococcus aureus; test: Antibacterial activity against methicillin-susceptible Staphylococcus aureus infected in mouse assessed as reduction in bacterial growth by measuring effective dose administered orally; assay type: functional; conditions: route po
[11] = Oral bioavailability in rat at 2 mg/kg; assay type: ADME, organism-based; conditions: in vivo
[12] = Plasma protein binding in rat plasma at 10 mg/kg by LC-MS/MS analysis; assay type: ADME, organism-based; conditions: read-out: PPB (converted)
[13] = test system: Staphylococcus aureus; test: Antibacterial activity against methicillin-susceptible Staphylococcus aureus infected in Swiss albino mouse assessed as reduction in bacterial growth by measuring effective dose administered orally 2 to 4 times a day for 2 consecutive days; assay type: functional; conditions: route po
[14] = test system: Enterococcus faecalis; test: Antibacterial activity against vancomycin-resistant Enterococcus faecalis […] infected in Swiss albino mouse assessed as reduction in bacterial growth by measuring effective dose administered orally 2 to 4 times a day for 2 consecutive days; assay type: functional; conditions: route po
[15] = test system: Staphylococcus aureus; test: Antibacterial activity against Staphylococcus aureus ATCC 25923 assessed as reduction in microbial growth incubated for 24 hrs by micro-plate reader assay; assay type: functional
[16] = test system: Enterococcus; test: Antibacterial activity against vancomycin-resistant Enterococci assessed as reduction in bacterial cell growth incubated for 24 hrs by CLSI-microbroth dilution method; assay type: functional
[17] = test system: Moraxella catarrhalis; test: Antibacterial activity against Moraxella catarrhalis ATCC 8176 assessed as inhibition in bacterial growth measured after 24 hrs by broth microdilution method; assay type: functional
[18] = test system: Moraxella catarrhalis; test: Antibacterial activity against Moraxella catarrhalis assessed as inhibition of bacterial growth measured after 24 hrs by broth microdilution method; assay type: functional
[19] = test system: Escherichia coli; test: Antibacterial activity against Escherichia coli assessed as inhibition of bacterial cell growth measured after 24 hrs by broth microdilution method; assay type: functional
[20] = test system: Haemophilus influenzae; test: Antibacterial activity against Haemophilus influenzae assessed as reduction in bacterial cell growth measured after 24 hrs by broth microdilution method; assay type: functional
[21] = test system: Streptococcus pneumoniae; test: Antibacterial activity against Streptococcus pneumoniae assessed as reduction in bacterial cell growth measured after 24 hrs by broth microdilution method; assay type: functional
[22] = test system: Staphylococcus aureus; test: Antibacterial activity against Staphylococcus aureus HG001 assessed as reduction in bacterial cell growth incubated for 18 hrs by two-fold serial dilution method; assay type: functional
[23] = test system: Pseudomonas aeruginosa; test: Antibacterial activity against Pseudomonas aeruginosa PAO1 assessed as bacterial growth inhibition incubated for 18 hrs by two-fold serial dilution method; assay type: functional
[24] = test system: Escherichia coli; test: Antibacterial activity against Escherichia coli Delta tolC mutant assessed as bacterial growth inhibition incubated for 24 hrs by broth microdilution method; assay type: functional
[25] = test system: Staphylococcus aureus; test: Antibacterial activity against Staphylococcus aureus ATCC 25923 assessed as reduction in bacterial growth incubated for 18 to 24 hrs by microbroth dilution method; assay type: functional; conditions: time 18-24 hrs
[26] = test system: Enterococcus faecium; test: Antibacterial activity against Enterococcus faecium ATCC 19434 assessed as reduction in microbial growth after 24 hrs by two-fold serial dilution method; assay type: functional
[27] = test system: Streptococcus pneumoniae; test: Antibacterial activity against Streptococcus pneumoniae assessed as reduction in bacterial cell growth inhibition by broth microdilution method; assay type: functional
[28] = target: T1, Amine oxidase [flavin-containing] B (Homo sapiens, UniProt P27338); test: Inhibition of MAO-B (unknown origin)
T1 sequence (P27338 whole entry): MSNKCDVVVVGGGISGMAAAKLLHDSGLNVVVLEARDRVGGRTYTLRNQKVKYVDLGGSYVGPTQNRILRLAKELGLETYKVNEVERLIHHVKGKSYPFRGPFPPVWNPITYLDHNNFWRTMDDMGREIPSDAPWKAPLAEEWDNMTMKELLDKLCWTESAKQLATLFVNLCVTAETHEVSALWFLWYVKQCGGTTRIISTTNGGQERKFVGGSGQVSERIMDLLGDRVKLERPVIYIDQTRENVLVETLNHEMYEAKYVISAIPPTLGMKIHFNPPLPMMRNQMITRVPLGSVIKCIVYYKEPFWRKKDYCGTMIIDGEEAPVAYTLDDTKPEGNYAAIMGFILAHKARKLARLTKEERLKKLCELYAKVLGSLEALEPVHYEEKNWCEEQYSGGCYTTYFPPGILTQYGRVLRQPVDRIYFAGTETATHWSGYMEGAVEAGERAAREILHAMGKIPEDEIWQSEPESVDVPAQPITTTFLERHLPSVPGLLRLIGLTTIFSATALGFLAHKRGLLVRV

[29] = test system: Staphylococcus aureus; test: Antibacterial activity against methicillin-resistant Staphylococcus aureus […] assessed as inhibition of bacterial growth incubated for 24 hrs by microplate reader assay; assay type: functional
[30] = test system: Enterococcus faecalis; test: Antibacterial activity against vancomycin-resistant Enterococcus faecalis ATCC 51299 assessed as reduction in bacterial cell growth incubated for 24 hrs by broth microdilution method; assay type: functional

SMILES: CC(=O)NC[C@H]1CN(c2ccc(-c3ccc(CO[C@@H]4COc5nc([N+](=O)[O-])cn5C4)nc3)c(F)c2)C(=O)O1
- MIC [1]: 0.15 µg/mL (≈ 0.285 µM)

SMILES: O=C1O[C@@H](Cn2ccnn2)CN1c1ccc(N2CCOCC2)c(F)c1
- MIC [2]: 0.5 µg/mL (≈ 1.44 µM)
- MIC [3]: 0.5 µg/mL (≈ 1.44 µM)
- MIC [4]: 0.5 µg/mL (≈ 1.44 µM)

SMILES: CC(=O)NC[C@H]1CN(c2ccc(N3CCN(C(=O)CO)CC3)c(F)c2)C(=O)O1 [EPEREZOLID]
- MIC [5]: 1 µg/mL (≈ 2.54 µM)
- MIC [6]: 1 µg/mL (≈ 2.54 µM)
- MIC [7]: 1 µg/mL (≈ 2.54 µM)

SMILES: Cn1nnc(-c2ccc(-c3ccc(N4C[C@H](CO)OC4=O)cc3F)cn2)n1 [TEDIZOLID]
- ED50 [8]: 8.8 mg/kg
- ED50 [9]: 8.8 mg/kg
- ED50 [10]: 8.8 mg/kg
- bioavailability [11]: 91%
- fraction unbound [12]: 0.3

SMILES: CC(=O)NC[C@H]1CN(c2ccc(-c3cnc(-n4cncn4)nc3)c(F)c2)C(=O)O1
- ED50 [13]: 4.2 mg/kg
- ED50 [14]: 8.6 mg/kg
- MIC [15]: 0.125 µg/mL

SMILES: O=C(NCC(=O)N1CCN(c2ccc(N3C[C@H](Cn4ccnn4)OC3=O)cc2F)CC1)c1ccc([N+](=O)[O-])o1
- MIC [16]: 0.06 µg/mL (≈ 0.111 µM)
- MIC [17]: 0.25 µg/mL (≈ 0.461 µM)
- MIC [18]: 0.06 µg/mL (≈ 0.111 µM)
- MIC [19]: 0.06 µg/mL (≈ 0.111 µM)
- MIC [20]: 0.06 µg/mL (≈ 0.111 µM)
- MIC [21]: 0.06 µg/mL (≈ 0.111 µM)

SMILES: CC(=O)NC[C@H]1CN(c2ccc(N3CCN(C(=O)CN(CCCNC(=O)c4cccc(O)c4O)C(=O)c4cccc(O)c4O)CC3)c(F)c2)C(=O)O1
- MIC [22]: 64 µM (≈ 46.3 µg/mL)
- MIC [23]: > 64 µM

SMILES: CC(=O)NC[C@H]1CN(c2ccc(N3CCN(C(=O)COCCOCCn4cc(CNC(=O)C(CCCCNC(=O)c5cccc(O)c5O)NC(=O)c5cccc(O)c5O)nn4)CC3)c(F)c2)C(=O)O1 (stereo partly drawn)
- MIC [22]: 64 µM (≈ 61.6 µg/mL)
- MIC [23]: > 64 µM

SMILES: CC(=O)NC[C@H]1CN(c2ccc(N3CCN(C(=O)OCn4cc(CNC(=O)C(CNC(=O)C(CNC(=O)CNC(=O)c5cccc(O)c5O)NC(=O)c5cccc(O)c5O)NC(=O)c5cccc(O)c5O)nn4)CC3)c(F)c2)C(=O)O1 (stereo partly drawn)
- MIC [22]: 16 µM (≈ 18 µg/mL)
- MIC [23]: > 64 µM

SMILES: CSCC[C@H](NC(=O)[C@H](Cc1ccc(O)cc1)NC(=O)[C@H](CCCCN)NC(=O)[C@@H]1CCCN1C(=O)[C@H](CO)NC(=O)[C@H](Cc1c[nH]c2ccccc12)NCC(=O)N(CCCCNC(=O)c1cccc(O)c1O)C(=O)c1cccc(O)c1O)C(=O)NCC(=O)N1CCN(c2ccc(N3C[C@H](CNC(C)=O)OC3=O)cc2F)CC1
- MIC [24]: 1 µM (≈ 1.59 µg/mL)

SMILES: O=C1C=CN(c2c(F)cc(N3C[C@H](CNc4ccon4)OC3=O)c(F)c2F)CC1 [CONTEZOLID]
- MIC [25]: 0.06 µg/mL (≈ 0.147 µM)
- MIC [26]: 0.06 µg/mL
- MIC [27]: 0.06 µg/mL (≈ 0.147 µM)
- IC50 [28]: 30.1 µM

SMILES: CC(=O)NC[C@H]1CN(c2ccc(N3CCN(Cc4ccc([N+](=O)[O-])o4)CC3)c(F)c2)C(=O)O1 [RANBEZOLID]
- MIC [29]: 0.125 µg/mL (≈ 0.271 µM)
- MIC [30]: 0.125 µg/mL (≈ 0.271 µM)

SMILES: CC(=O)NC[C@H]1CN(c2ccc(N3CCN(C(=O)OCn4cc(CNC(=O)C(CCCCNC(=O)c5cccc(O)c5O)NC(=O)c5cccc(O)c5O)nn4)CC3)c(F)c2)C(=O)O1 (stereo partly drawn)
- MIC [22]: 64 µM (≈ 57 µg/mL)
- MIC [23]: > 64 µM

SMILES: CC(=O)NC[C@H]1CN(c2ccc(N3CCN(C(=O)COCCOCCn4cc(CNC(=O)C(CNC(=O)C(CNC(=O)CNC(=O)c5cccc(O)c5O)NC(=O)c5cccc(O)c5O)NC(=O)c5cccc(O)c5O)nn4)CC3)c(F)c2)C(=O)O1 (stereo partly drawn)
- MIC [22]: 64 µM (≈ 76.8 µg/mL)
- MIC [23]: > 64 µM
